Converted amounts (≈) assume the structure as drawn. Where two headings read alike, the source gives them in different places.
Experiments:
[1] = Solubility experiments (approximate solubility by solvent aliquot addition); assay type: physicochemical; details: thermodynamic from solid
Method: Approximately 20 mg of Form A of Compound (1) was placed in each of 48 vials and 5 volume aliquots of the appropriate solvent systems were added to the appropriate vial. Between each addition, the mixture was checked for dissolution and if no dissolution was apparent, the mixture was warmed to ca. 50° C. and checked again. This procedure was continued until dissolution was observed or until 100 volumes of solvent had been added.

[2] = Dynamic Vapour Sorption (DVS) with XRPD re-analysis; assay type: physicochemical
Method: Dynamic Vapour Sorption (DVS) was performed on a DVS-1 dynamic vapour sorption balance by Surface Measurement Systems. Approximately 10-20 mg of sample was loaded into a wire mesh vapour sorption balance pan of the balance. The sample was subjected to a ramping profile from 20-90% relative humidity (RH) in 10% increments, maintaining the sample at each step until a stable weight had been achieved (99.5% step completion) or 1000 minutes had elapsed. After completion of the sorption cycle, the sample was dried using the same procedure, but all the way down to 0% RH and finally taken back to the starting point of 20% RH. The weight change during the sorption/desorption cycles were plotted, allowing for the hygroscopic nature of the sample to be determined. Following the DVS analysis, the solid was re-analysed by XRPD in order to determine whether there had been any change in physical form.

O=C(O)CNC(=O)c1ncc(-c2cccc(Cl)c2)cc1O [Form A of Compound (I), {[5-(3-chlorophenyl)-3-hydroxypyridine-2-carbonyl]amino}acetic acid]
solubility ([1]; organic solvent or mixture, Solvent: Diisopropyl ether (DIPE), ca. 50° C., read-out: Solubility (mg/mL) (ca. 50° C.)): < 10 mg/mL
solubility ([1]; organic solvent or mixture, Solvent: Dimethyl sulfoxide (DMSO), RT (ca. 22° C.), read-out: Solubility (mg/mL) RT (ca. 22° C.)): > 200 mg/mL
solubility ([1]; organic solvent or mixture, Solvent: Dimethyl sulfoxide (DMSO), ca. 50° C., read-out: Solubility (mg/mL) (ca. 50° C.)): > 200 mg/mL
solubility ([1]; organic solvent or mixture, Solvent: Dimethylacetamide (DMA), RT (ca. 22° C.), read-out: Solubility (mg/mL) RT (ca. 22° C.)): > 200 mg/mL
solubility ([1]; organic solvent or mixture, Solvent: Dimethylacetamide (DMA), ca. 50° C., read-out: Solubility (mg/mL) (ca. 50° C.)): > 200 mg/mL
solubility ([1]; organic solvent or mixture, Solvent: Dimethylformamide (DMF), RT (ca. 22° C.), read-out: Solubility (mg/mL) RT (ca. 22° C.)): > 200 mg/mL
solubility ([1]; organic solvent or mixture, Solvent: Dimethylformamide (DMF), ca. 50° C., read-out: Solubility (mg/mL) (ca. 50° C.)): > 200 mg/mL
solubility ([1]; organic solvent or mixture, Solvent: EtOAc/Cyclohexane (1:2), ca. 50° C., read-out: Solubility (mg/mL) (ca. 50° C.)): < 10 mg/mL
solubility ([1]; organic solvent or mixture, Solvent: EtOAc/Toluene (1:2), RT (ca. 22° C.), read-out: Solubility (mg/mL) RT (ca. 22° C.)): < 14 mg/mL
solubility ([1]; organic solvent or mixture, Solvent: EtOAc/Toluene (1:2), ca. 50° C., read-out: Solubility (mg/mL) (ca. 50° C.)): 14 mg/mL (≈ 45.6 mM)
solubility ([1]; organic solvent or mixture, Solvent: Ethanol (EtOH), RT (ca. 22° C.), read-out: Solubility (mg/mL) RT (ca. 22° C.)): 34 mg/mL (≈ 111 mM)
solubility ([1]; organic solvent or mixture, Solvent: Ethanol (EtOH), ca. 50° C., read-out: Solubility (mg/mL) (ca. 50° C.)): > 34 mg/mL
solubility ([1]; organic solvent or mixture, Solvent: Ethyl acetate (EtOAc), RT (ca. 22° C.), read-out: Solubility (mg/mL) RT (ca. 22° C.)): < 41 mg/mL
solubility ([1]; organic solvent or mixture, Solvent: Ethyl acetate (EtOAc), ca. 50° C., read-out: Solubility (mg/mL) (ca. 50° C.)): 41 mg/mL (≈ 134 mM)
solubility ([1]; organic solvent or mixture, Solvent: Ethylene glycol, RT (ca. 22° C.), read-out: Solubility (mg/mL) RT (ca. 22° C.)): < 10 mg/mL
solubility ([1]; organic solvent or mixture, Solvent: Ethylene glycol, ca. 50° C., read-out: Solubility (mg/mL) (ca. 50° C.)): < 10 mg/mL
solubility ([1]; organic solvent or mixture, Solvent: Heptane, RT (ca. 22° C.), read-out: Solubility (mg/mL) RT (ca. 22° C.)): < 10 mg/mL
solubility ([1]; organic solvent or mixture, Solvent: Heptane, ca. 50° C., read-out: Solubility (mg/mL) (ca. 50° C.)): < 10 mg/mL
solubility ([1]; organic solvent or mixture, Solvent: Isobutyl acetate (iBuOAc), RT (ca. 22° C.), read-out: Solubility (mg/mL) RT (ca. 22° C.)): < 20 mg/mL
solubility ([1]; organic solvent or mixture, Solvent: Isobutyl acetate (iBuOAc), ca. 50° C., read-out: Solubility (mg/mL) (ca. 50° C.)): 20 mg/mL (≈ 65.2 mM)
solubility ([1]; organic solvent or mixture, Solvent: Isopropyl acetate (iPrOAc), RT (ca. 22° C.), read-out: Solubility (mg/mL) RT (ca. 22° C.)): < 26 mg/mL
solubility ([1]; organic solvent or mixture, Solvent: Isopropyl acetate (iPrOAc), ca. 50° C., read-out: Solubility (mg/mL) (ca. 50° C.)): 26 mg/mL (≈ 84.8 mM)
solubility ([1]; organic solvent or mixture, Solvent: MeOH/Water (1%), RT (ca. 22° C.), read-out: Solubility (mg/mL) RT (ca. 22° C.)): < 40 mg/mL
solubility ([1]; organic solvent or mixture, Solvent: MeOH/Water (1%), ca. 50° C., read-out: Solubility (mg/mL) (ca. 50° C.)): 40 mg/mL (≈ 130 mM)
solubility ([1]; organic solvent or mixture, Solvent: MeOH/Water (20%), RT (ca. 22° C.), read-out: Solubility (mg/mL) RT (ca. 22° C.)): < 10 mg/mL
solubility ([1]; organic solvent or mixture, Solvent: Methanol (MeOH), RT (ca. 22° C.), read-out: Solubility (mg/mL) RT (ca. 22° C.)): < 51 mg/mL
solubility ([1]; organic solvent or mixture, Solvent: Methanol (MeOH), ca. 50° C., read-out: Solubility (mg/mL) (ca. 50° C.)): 51 mg/mL (≈ 166 mM)
solubility ([1]; organic solvent or mixture, Solvent: Methyl acetate (MeOAc), RT (ca. 22° C.), read-out: Solubility (mg/mL) RT (ca. 22° C.)): < 68 mg/mL
solubility ([1]; organic solvent or mixture, Solvent: Methyl acetate (MeOAc), ca. 50° C., read-out: Solubility (mg/mL) (ca. 50° C.)): 68 mg/mL (≈ 222 mM)
solubility ([1]; organic solvent or mixture, Solvent: Methyl ethyl ketone (MEK), RT (ca. 22° C.), read-out: Solubility (mg/mL) RT (ca. 22° C.)): < 100 mg/mL
solubility ([1]; organic solvent or mixture, Solvent: Methyl ethyl ketone (MEK), ca. 50° C., read-out: Solubility (mg/mL) (ca. 50° C.)): 100 mg/mL (≈ 326 mM)
solubility ([1]; organic solvent or mixture, Solvent: Methyl isobutyl ketone (MIBK), RT (ca. 22° C.), read-out: Solubility (mg/mL) RT (ca. 22° C.)): < 34 mg/mL
solubility ([1]; organic solvent or mixture, Solvent: Methyl isobutyl ketone (MIBK), ca. 50° C., read-out: Solubility (mg/mL) (ca. 50° C.)): 34 mg/mL (≈ 111 mM)
solubility ([1]; organic solvent or mixture, Solvent: N-methyl-2-pyrrolidone (NMP), RT (ca. 22° C.), read-out: Solubility (mg/mL) RT (ca. 22° C.)): > 200 mg/mL
solubility ([1]; organic solvent or mixture, Solvent: N-methyl-2-pyrrolidone (NMP), ca. 50° C., read-out: Solubility (mg/mL) (ca. 50° C.)): > 200 mg/mL
solubility ([1]; organic solvent or mixture, Solvent: Nitromethane, RT (ca. 22° C.), read-out: Solubility (mg/mL) RT (ca. 22° C.)): < 10 mg/mL
solubility ([1]; organic solvent or mixture, Solvent: Nitromethane, ca. 50° C., read-out: Solubility (mg/mL) (ca. 50° C.)): < 10 mg/mL
solubility ([1]; organic solvent or mixture, Solvent: Tetrahydrofuran (THF), RT (ca. 22° C.), read-out: Solubility (mg/mL) RT (ca. 22° C.)): > 200 mg/mL
solubility ([1]; organic solvent or mixture, Solvent: Tetrahydrofuran (THF), ca. 50° C., read-out: Solubility (mg/mL) (ca. 50° C.)): > 200 mg/mL
solubility ([1]; organic solvent or mixture, Solvent: Toluene, RT (ca. 22° C.), read-out: Solubility (mg/mL) RT (ca. 22° C.)): < 10 mg/mL
solubility ([1]; organic solvent or mixture, Solvent: Toluene, ca. 50° C., read-out: Solubility (mg/mL) (ca. 50° C.)): < 10 mg/mL
solubility ([1]; organic solvent or mixture, Solvent: Trifluoroethanol (TFE), RT (ca. 22° C.), read-out: Solubility (mg/mL) RT (ca. 22° C.)): < 10 mg/mL
solubility ([1]; organic solvent or mixture, Solvent: Trifluoroethanol (TFE), ca. 50° C., read-out: Solubility (mg/mL) (ca. 50° C.)): < 10 mg/mL
solubility ([1]; organic solvent or mixture, Solvent: methyl tert-butyl ether (MTBE), RT (ca. 22° C.), read-out: Solubility (mg/mL) RT (ca. 22° C.)): 14 mg/mL (≈ 45.6 mM)
solubility ([1]; organic solvent or mixture, Solvent: methyl tert-butyl ether (MTBE), ca. 50° C., read-out: Solubility (mg/mL) (ca. 50° C.)): > 14 mg/mL
solubility ([1]; Solvent: Water, RT (ca. 22° C.), read-out: Solubility (mg/mL) RT (ca. 22° C.)): < 10 mg/mL
solubility ([1]; Solvent: Water, ca. 50° C., read-out: Solubility (mg/mL) (ca. 50° C.)): < 10 mg/mL
water sorption at 90% RH ([2]; DVS, 90% RH): 0.13%
XRPD analysis following DVS (change in physical form) ([2]; after DVS sorption/desorption cycle): no change in form
hygroscopicity (DVS) ([2]; judged from water sorption at 90% RH): non-hygroscopic

Source: US12419877B2, “Solid forms of {[5-(3-chlorophenyl)-3-hydroxypyridine-2-carbonyl]amino}acetic acid, compositions, and uses thereof” (Akebia Therapeutics, Inc., priority 2013, dated 2025)
